Measurements from ChEMBL document CHEMBL1201862, “PubChem BioAssay data set” (2004).
Active and inactive are the calls of the source.

Experiments:
[1] = Luminescence Cell-Based Dose Retest to Confirm Inhibitors of Cancer Stem Cells. [Related pubchem assays (depositor defined):AID2717, AID2721]; format: functional; settings: Homo sapiens
[2] = biological target: T1, Corticotropin-releasing factor receptor 2/Corticotropin-releasing factor-binding protein (Homo sapiens, UniProt P24387+Q13324); experiment: Dose Response confirmation of uHTS hits for small molecule antagonists of the CRF-binding protein and CRF-R2 receptor complex.; format: functional; settings: read-out: IC50_Mean
T1 sequence (Q13324 whole entry): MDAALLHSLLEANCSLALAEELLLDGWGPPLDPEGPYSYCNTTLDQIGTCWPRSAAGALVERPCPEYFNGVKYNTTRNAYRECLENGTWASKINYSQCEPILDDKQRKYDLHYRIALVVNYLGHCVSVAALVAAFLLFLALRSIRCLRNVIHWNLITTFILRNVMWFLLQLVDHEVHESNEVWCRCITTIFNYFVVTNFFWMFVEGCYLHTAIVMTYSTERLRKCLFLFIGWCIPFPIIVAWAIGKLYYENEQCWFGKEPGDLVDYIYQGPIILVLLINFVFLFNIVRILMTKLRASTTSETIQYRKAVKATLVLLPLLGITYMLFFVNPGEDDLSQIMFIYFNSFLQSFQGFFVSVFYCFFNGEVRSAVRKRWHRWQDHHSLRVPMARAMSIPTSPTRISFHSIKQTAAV
T1 sequence (P24387 whole entry): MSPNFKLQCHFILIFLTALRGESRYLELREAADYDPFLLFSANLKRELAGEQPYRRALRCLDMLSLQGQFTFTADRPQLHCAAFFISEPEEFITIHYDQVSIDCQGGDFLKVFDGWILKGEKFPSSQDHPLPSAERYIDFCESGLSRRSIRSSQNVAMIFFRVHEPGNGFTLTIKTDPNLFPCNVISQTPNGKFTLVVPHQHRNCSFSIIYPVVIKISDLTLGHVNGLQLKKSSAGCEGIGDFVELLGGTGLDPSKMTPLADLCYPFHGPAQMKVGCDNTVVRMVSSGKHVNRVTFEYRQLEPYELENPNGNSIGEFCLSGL

[3] = blockers of CRF-binding protein–CRF-R2 complex – cell-based, uHTS hits, 384-well, dose response (AID 651639); format: functional, Homo sapiens; settings: read-out: IC50_Mean
[4] = biological target: T1, Corticotropin-releasing factor receptor 2/Corticotropin-releasing factor-binding protein; experiment: activators of CRF receptor 2 with binding protein – uHTS hits, confirmation (AID 602473); format: functional; settings: read-out: EC50_Mean
cells [5] = format: functional, cell-based
cells [6] = format: functional, cell-based; remark: listed apart in the source
Fatty acid synthase [7] = biological target: T2, Fatty acid synthase (Homo sapiens, UniProt P49327); experiment: inhibition of human FAS-TE enzyme activity – biochemical, endpoint fluorescence intensity, uHTS hits, dose response (AID 624327); format: functional;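 also: fluorescence from hydrolysis of an O-methyl fluorescein acyl ester substrate by the enzyme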
Fatty acid synthase [8] = biological target: T2, Fatty acid synthase; experiment: inhibition of human FAS-TE enzyme activity – biochemical, kinetic fluorescence intensity, dose response (AID 624326); format: functional;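 also: rate of fluorescence rise from hydrolysis of a fluorogenic O-methyl fluorescein ester substrate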
[9] = viability of uninfected HEp-2 cells – cell-based, HTS, cytotoxicity control for RSV inhibitor project, dose response (AID 2410); format: functional; settings: human respiratory syncytial virus
[10] = Luminescence Cell-Based Dose Confirmation HTS to Identify Activators of 5'UTR Stem-Loop Driven Alpha-Synuclein mRNA Translation in H4 Neuroglioblastoma Cells. [Related pubchem assays: 1829 (Project Summary), 1814 (Primary HTS)]; format: functional
[11] = Luminescence Cell-Based Dose Response HTS to Identify Activators of Luciferase Translation or Activity in H4 […] Cells. [Related pubchem assays: 1829 (Project Summary), 1814 (Primary HTS)]; format: functional
H4 = experiment: Luminescence Cell-Based Dose Response HTS to Identify Activators of 5'UTR Stem-Loop Driven Prion Protein mRNA Translation in H4 Neuroglioblastoma Cells. [Related pubchem assays: 1829 (Project Summary), 1814 (Primary HTS)]; format: functional; settings: Homo sapiens
BJ [12] = experiment: BJ-TERT-LT-ST fibroblast viability loss – cell-based, RAS-independent, luminescence, dose response (AID 1935); format: functional; settings: Homo sapiens;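 also: BJ fibroblasts immortalized with TERT plus LT and ST oncogenes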
BJ [13] = experiment: BJ-TERT fibroblast viability loss – cell-based, RAS-independent, luminescence, dose response (AID 1933); format: functional; settings: Homo sapiens
[14] = DRD fibroblast viability loss – cell-based, non-viral oncogenic, luminescence, dose response (AID 1934); format: functional; settings: Homo sapiens
BJ [15] = experiment: cells; format: functional, cell-based; settings: Homo sapiens
Protein RecA = biological target: T3, Protein RecA (Mycobacterium tuberculosis, UniProt P9WHJ3); experiment: Fluorescence Cell-Free Homogeneous Dose Retest to Identify Inhibitors of RecA-Intein Splicing Activity. [Related pubchem assays (depositor defined):AID2097, AID2223, AID489010, AID492950]; format: functional
T3 sequence (P9WHJ3 whole entry): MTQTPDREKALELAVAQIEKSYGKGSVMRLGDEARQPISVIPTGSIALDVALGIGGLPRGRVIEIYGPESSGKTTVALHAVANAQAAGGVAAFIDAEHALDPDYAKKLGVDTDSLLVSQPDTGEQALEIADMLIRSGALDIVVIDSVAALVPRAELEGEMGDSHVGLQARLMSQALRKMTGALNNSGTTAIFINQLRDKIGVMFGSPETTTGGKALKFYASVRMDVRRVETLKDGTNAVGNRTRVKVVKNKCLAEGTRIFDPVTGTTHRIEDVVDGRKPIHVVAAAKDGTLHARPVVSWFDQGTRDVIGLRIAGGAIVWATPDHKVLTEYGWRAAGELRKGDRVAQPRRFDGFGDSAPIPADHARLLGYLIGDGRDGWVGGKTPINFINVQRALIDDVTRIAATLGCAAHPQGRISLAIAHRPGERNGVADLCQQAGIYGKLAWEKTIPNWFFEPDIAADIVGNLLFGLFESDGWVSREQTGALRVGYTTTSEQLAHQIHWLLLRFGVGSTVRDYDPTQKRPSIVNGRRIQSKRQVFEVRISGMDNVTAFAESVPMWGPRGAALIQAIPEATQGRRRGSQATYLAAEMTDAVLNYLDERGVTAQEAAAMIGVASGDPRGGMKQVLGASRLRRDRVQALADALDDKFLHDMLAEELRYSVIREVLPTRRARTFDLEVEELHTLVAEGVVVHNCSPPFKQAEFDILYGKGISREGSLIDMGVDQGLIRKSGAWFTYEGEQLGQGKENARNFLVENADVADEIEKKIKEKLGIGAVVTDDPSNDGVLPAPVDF

[16] = biological target: T4, Heat shock factor protein 1 (Mus musculus, UniProt P38532); experiment: enhancement of HSF1-driven luciferase signal – cell-based, NIH3T3, luminescence, dose retest, confirmation (AID 435004); format: functional;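 also: stress induced by proteasome inhibitor MG132 added 30 min after compound; luciferase reporter driven by HSF1 response element in NIH3T3 cells; actives raise luminescence as potentiators of the MG132 stress response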
T4 sequence (P38532 whole entry): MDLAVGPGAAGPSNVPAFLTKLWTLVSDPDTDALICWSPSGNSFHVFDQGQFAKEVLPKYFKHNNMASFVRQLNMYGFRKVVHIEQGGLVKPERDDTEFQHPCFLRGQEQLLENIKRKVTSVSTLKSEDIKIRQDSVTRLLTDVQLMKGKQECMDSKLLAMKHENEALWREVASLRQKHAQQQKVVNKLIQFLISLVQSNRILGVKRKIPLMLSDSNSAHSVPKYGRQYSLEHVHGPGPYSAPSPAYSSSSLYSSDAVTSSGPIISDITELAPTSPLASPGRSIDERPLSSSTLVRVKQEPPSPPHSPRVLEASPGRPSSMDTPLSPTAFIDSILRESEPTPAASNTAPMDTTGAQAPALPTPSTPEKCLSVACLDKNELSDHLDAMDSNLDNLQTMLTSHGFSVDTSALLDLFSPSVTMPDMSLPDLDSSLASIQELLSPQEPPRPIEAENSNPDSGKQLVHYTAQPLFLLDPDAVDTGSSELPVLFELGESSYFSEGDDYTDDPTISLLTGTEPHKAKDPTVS

[17] = biological target: T5, Replicative DNA helicase DnaB (Mycobacterium tuberculosis, UniProt P9WMR3); experiment: DnaB intein splicing inhibitors, dose response, biochemical, cell-free fluorescence (AID 449749); format: functional
T5 sequence (P9WMR3 whole entry): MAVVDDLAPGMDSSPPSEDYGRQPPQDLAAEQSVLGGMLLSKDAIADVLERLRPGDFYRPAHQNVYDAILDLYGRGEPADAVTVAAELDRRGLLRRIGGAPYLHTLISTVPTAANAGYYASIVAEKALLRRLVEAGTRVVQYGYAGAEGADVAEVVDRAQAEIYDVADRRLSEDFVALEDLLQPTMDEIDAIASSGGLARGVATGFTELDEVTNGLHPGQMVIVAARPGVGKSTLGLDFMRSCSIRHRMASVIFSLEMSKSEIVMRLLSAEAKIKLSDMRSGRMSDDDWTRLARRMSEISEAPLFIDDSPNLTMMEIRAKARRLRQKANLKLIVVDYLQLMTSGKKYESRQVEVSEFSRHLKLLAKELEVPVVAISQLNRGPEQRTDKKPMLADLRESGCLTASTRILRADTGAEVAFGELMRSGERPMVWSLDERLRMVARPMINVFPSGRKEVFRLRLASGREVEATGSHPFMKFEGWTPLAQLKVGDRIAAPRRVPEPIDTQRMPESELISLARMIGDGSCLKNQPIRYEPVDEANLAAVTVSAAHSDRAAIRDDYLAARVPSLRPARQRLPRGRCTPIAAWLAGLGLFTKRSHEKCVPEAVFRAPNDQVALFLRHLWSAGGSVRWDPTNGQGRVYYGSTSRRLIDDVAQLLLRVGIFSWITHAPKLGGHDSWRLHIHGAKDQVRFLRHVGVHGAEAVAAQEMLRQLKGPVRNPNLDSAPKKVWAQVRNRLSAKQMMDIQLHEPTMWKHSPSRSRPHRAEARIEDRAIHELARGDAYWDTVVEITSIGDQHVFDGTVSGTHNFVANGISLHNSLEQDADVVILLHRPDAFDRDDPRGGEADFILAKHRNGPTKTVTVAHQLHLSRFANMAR

T2 sequence (P49327 whole entry): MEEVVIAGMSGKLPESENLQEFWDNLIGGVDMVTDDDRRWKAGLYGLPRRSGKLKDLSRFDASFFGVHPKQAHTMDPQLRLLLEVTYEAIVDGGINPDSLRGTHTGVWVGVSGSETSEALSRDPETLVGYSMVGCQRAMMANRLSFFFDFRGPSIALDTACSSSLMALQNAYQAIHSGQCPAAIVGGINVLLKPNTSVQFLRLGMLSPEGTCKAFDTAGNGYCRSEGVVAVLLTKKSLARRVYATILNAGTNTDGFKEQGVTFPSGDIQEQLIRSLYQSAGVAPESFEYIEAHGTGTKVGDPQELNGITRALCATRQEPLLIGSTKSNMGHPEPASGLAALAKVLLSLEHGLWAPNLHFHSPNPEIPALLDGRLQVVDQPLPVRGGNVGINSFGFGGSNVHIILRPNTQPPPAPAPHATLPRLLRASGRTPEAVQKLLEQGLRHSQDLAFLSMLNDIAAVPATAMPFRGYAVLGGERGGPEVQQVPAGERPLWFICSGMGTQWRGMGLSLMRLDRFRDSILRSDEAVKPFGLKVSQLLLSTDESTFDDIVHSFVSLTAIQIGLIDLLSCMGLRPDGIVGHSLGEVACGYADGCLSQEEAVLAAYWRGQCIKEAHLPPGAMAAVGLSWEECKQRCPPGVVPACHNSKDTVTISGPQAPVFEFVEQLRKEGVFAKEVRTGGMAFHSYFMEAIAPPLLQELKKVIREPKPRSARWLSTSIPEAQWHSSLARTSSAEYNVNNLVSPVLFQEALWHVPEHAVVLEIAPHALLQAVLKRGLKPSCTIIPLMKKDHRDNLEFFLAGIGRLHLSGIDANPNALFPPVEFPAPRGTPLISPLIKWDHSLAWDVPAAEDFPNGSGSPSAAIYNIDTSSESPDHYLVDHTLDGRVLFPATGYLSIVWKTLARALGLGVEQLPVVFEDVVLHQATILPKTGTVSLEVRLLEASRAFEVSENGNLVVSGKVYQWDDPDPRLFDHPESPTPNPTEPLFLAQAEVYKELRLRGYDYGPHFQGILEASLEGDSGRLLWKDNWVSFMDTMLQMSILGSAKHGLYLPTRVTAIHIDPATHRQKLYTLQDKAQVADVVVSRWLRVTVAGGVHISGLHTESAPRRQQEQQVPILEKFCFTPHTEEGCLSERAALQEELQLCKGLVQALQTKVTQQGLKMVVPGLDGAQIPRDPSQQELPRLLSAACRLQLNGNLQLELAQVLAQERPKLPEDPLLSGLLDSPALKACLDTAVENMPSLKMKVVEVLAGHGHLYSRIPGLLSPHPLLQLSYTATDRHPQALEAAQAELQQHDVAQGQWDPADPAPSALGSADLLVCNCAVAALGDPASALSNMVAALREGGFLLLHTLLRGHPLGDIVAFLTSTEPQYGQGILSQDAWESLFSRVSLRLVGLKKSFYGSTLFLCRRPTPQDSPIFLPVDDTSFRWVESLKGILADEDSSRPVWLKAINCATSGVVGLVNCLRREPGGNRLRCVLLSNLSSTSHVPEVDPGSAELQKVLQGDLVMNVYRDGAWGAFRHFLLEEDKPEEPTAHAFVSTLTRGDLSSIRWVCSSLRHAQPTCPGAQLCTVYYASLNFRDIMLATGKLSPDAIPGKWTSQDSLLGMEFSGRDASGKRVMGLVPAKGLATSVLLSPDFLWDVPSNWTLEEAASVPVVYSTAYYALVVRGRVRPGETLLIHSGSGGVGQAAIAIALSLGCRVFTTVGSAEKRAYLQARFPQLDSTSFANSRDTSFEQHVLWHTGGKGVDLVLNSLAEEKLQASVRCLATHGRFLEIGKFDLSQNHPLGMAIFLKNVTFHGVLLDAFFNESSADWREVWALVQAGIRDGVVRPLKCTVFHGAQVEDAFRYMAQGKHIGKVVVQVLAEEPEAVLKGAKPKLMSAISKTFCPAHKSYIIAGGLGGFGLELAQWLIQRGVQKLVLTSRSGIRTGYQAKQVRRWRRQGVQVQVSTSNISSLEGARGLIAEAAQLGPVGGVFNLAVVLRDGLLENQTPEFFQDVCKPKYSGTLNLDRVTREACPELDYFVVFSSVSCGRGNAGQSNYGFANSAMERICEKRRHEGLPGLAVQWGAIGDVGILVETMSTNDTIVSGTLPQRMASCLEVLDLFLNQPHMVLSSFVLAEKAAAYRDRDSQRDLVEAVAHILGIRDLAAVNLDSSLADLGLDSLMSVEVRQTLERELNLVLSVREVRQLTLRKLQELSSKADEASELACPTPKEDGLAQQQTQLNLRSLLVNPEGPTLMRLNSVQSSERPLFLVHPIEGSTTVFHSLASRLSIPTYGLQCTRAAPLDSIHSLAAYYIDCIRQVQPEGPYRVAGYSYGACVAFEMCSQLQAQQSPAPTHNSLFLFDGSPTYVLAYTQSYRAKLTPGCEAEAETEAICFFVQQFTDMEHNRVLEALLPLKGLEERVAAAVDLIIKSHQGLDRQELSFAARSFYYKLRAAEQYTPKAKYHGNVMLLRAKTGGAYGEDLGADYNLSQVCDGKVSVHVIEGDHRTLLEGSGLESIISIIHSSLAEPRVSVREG

O=[N+]([O-])c1cccc(C2NCC(c3ccccc3Cl)c3c2[nH]c2ccccc32)c1 (configuration not stated)
AC50 [1]: 2.69 µM (active)

COc1ccc(C2N(Cc3ccccc3)CC(=O)N2/N=C(\C)c2ccccc2)cc1 (configuration not stated)
IC50 [2]: 13.8 µM (active)
IC50 [3]: 4.93 µM (active)
EC50 [4]: > 53 µM (inactive)

CCOc1ccc(N2CC(C(=O)Nc3ccccc3C(=O)NC3CC3)CC2=O)cc1 (configuration not stated)
EC50 (cells [5]): > 350 µM (not active)
EC50 (cells [6]): > 350 µM (not active)

CCCCCCCCCCCC(=O)NC(Cc1ccc(OC)c([N+](=O)[O-])c1)C(=O)O (configuration not stated)
IC50 [2]: 11.6 µM (active)
IC50 [3]: > 20 µM (inactive)
EC50 [4]: > 53 µM (inactive)

COC(=O)C1=CN(Cc2ccc(OC)cc2)C=C(C(=O)OC)C1c1cccs1
IC50 [2]: 4.21 µM (active)
IC50 [3]: > 20 µM (inactive)
EC50 [4]: > 53 µM (inactive)

C[C@@H]1CN([C@H](C)CO)C(=O)c2cc(NC(=O)Nc3ccc(F)cc3)ccc2O[C@@H](C)CCCCO[C@H]1CN(C)S(=O)(=O)c1cccs1
IC50 (Fatty acid synthase [7]): 5.17 µM (active)
IC50 (Fatty acid synthase [8]): 3.69 µM (active)

CCOc1ccc(CCNC(=O)COC(=O)Cn2nc(C)c([N+](=O)[O-])c2C)cc1OCC
EC50 (cells [5]): > 350 µM (not active)
EC50 (cells [6]): > 350 µM (not active)

C=CCC[C@@H](Cc1ccc(F)cc1)C(=O)OC[C@H](Cc1c[nH]c2ccccc12)NC(=O)[C@H](CC=C)CC(=O)NCCO
IC50 (Fatty acid synthase [7]): 10.9 µM (active)
IC50 (Fatty acid synthase [8]): 6.03 µM (active)

COc1ccc2c(c1)C(=O)N1[C@H]3c4cc(Cl)ccc4OC[C@@H]3[C@H](c3ccccc3)[C@]1(C)C(=O)N2
IC50 (Fatty acid synthase [7]): 16.5 µM (active)
IC50 (Fatty acid synthase [8]): 18.8 µM (active)

O=C(/C=C/c1ccc(Cl)c([N+](=O)[O-])c1)Nc1cccc(NC(=O)c2ccco2)c1
AC50 [1]: 2.56 µM (active)
CC50 [9]: 21.2 µM (active)

COC(=O)c1cc(S(=O)(=O)NCc2ccccc2OC)cn1C
EC50 (cells [5]): > 350 µM (not active)
EC50 (cells [6]): > 350 µM (not active)

Cc1ccc(NC(=O)Cn2ncn3c(cc4ccccc43)c2=O)cc1F
IC50 [2]: 9.94 µM (active)
IC50 [3]: 7.27 µM (active)
EC50 [4]: > 53 µM (inactive)

COc1ccc(NC(=O)CCCCC(=O)Nc2ccc(OC)cc2OC)c(OC)c1
IC50 [2]: < 0.368 µM (active)
IC50 [3]: > 20 µM (inactive)
EC50 [4]: > 53 µM (inactive)

O=C(N/C(=C/C=C/c1ccccc1)C(=O)N1CCCCC1)c1ccc([N+](=O)[O-])cc1
IC50 (Fatty acid synthase [7]): 0.295 µM (active)
IC50 (Fatty acid synthase [8]): 0.258 µM (active)

CCOC(=O)C(CCCCOc1ccc([N+](=O)[O-])cc1)C(=O)OCC
IC50 [2]: 25.9 µM (active)
IC50 [3]: > 20 µM (inactive)
EC50 [4]: > 53 µM (inactive)

CC1CCc2nc(NC(=O)CN3CCN(c4ccc(F)cc4)CC3)sc2C1 (configuration not stated)
IC50 (Fatty acid synthase [7]): 2.04 µM (active)
IC50 (Fatty acid synthase [8]): 1.81 µM (active)

Cc1cccc(-n2ncc3c(NCc4ccco4)ncnc32)c1
EC50 [10]: 4.04 µM (active)
EC50 [11]: 49.1 µM (active)
EC50 (cells [5]): 88.7 µM (active)
EC50 (cells [6]): > 350 µM (not active)
EC50 (H4): 64.9 µM (active)

Cc1onc(-c2ccccc2)c1C(=O)Nc1ccc(S(=O)(=O)N2CCCC2)cc1
EC50 (cells [5]): > 350 µM (not active)
EC50 (cells [6]): > 350 µM (not active)

O=C(/C=C/c1cc2ccccc2o1)c1ccccc1O
AC50 [1]: 10.6 µM (active)

COc1cc(NC(=O)CSc2nc3ccccc3n2-c2ccccc2)c(C)cc1[N+](=O)[O-]
EC50 (BJ [12]): > 150 µM (inconclusive)
EC50 (BJ [13]): > 150 µM (not active)
IC50 [2]: > 47.1 µM (inactive)
EC50 [14]: > 150 µM (not active)
EC50 (BJ [15]): > 150 µM (not active)
EC50 [4]: > 53 µM (inactive)

CC(C)Sc1nc(N)c2c3c(sc2n1)CN(C)CC3
EC50 (cells [5]): > 350 µM (not active)
EC50 (cells [6]): > 350 µM (not active)

Cc1ccc(-c2cc(NC(=O)CCl)n(-c3ccccc3)n2)cc1
AC50 [1]: 5.24 µM (active)
EC50 (Protein RecA): 5.68 µM (active)
EC50 [16]: 9.36 µM (active)
AC50 [17]: 16.2 µM (active)
